As usually defined, the Emax is the greatest response seen or fitted, relative to the assay's reference. Broadly, the DC50 is the concentration giving 50% degradation.

Residue numbers refer to the chain shown, from its start. Read-outs that look alike come from different tables or passages of the source.

These results are taken from US12661410B2, “Compounds for targeted degradation of RET” (C4 Therapeutics, Inc., priority 2020, dated 2026).

One assay deals with T1, RET (658-1114) (Homo sapiens, UniProt P07949).
T1 construct: 658-1114; expressed in transfected cells; host or cells: 293T.144 (293T cells, generated in-house)
T1 sequence (P07949 658-1114): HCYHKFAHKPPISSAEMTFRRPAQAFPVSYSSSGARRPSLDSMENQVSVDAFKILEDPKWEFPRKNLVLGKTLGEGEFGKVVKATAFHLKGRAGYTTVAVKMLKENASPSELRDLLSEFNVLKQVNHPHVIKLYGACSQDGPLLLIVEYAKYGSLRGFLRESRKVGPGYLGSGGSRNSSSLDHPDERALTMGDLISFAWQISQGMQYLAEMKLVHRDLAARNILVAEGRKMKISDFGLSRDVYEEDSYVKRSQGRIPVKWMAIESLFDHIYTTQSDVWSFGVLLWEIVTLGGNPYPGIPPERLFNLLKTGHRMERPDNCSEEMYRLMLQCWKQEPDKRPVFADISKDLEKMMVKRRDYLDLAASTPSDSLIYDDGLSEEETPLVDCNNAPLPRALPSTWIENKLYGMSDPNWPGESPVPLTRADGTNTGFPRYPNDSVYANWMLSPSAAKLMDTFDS
The assay can be described thus: HiBiT-Degradation, RET wild-type degradation assay (Nano-Glo HiBiT Lytic), 293T.144 cells. Format: cell-based. The following applies: for Emax / DC50: 6.0 hours; for Emax: read-out: 293T.144 RET (658-1114) 6.0 hours (Emax); for DC50: read-out: 293T.144 RET (658-1114) 6.0 hours (DC50). In a few lines: (§1)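 6 h treatment, 293T.144 (WT) / 293T.165 (G810R) cells ectopically expressing HiBiT-fused RET KD; 11-pt half-log dilution, top 10 μM, n=2. Nano-Glo HiBiT lytic detection, luminescence. Output: DC50, Emax (% protein remaining).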

The next assay addresses T2, RET(KD: 658-1114 G810R) (Homo sapiens, UniProt P07949, G810R).
T2 construct: 658-1114; expressed in transfected cells; host or cells: 293T.165 (293T cells, generated in-house)
T2 sequence (P07949 658-1114 G810R): T1 sequence (P07949 658-1114) with G153R
The assay can be described thus: HiBiT-Degradation, RET G810R degradation assay (Nano-Glo HiBiT Lytic), 293T.165 cells. Format: cell-based. The following applies: for Emax / DC50: 6.0 hours; for Emax: % remaining protein, read-out: 293T.165 RET(KD: 658-1114 G810R) 6.0 hours (Emax); for DC50: read-out: 293T.165 RET(KD: 658-1114 G810R) 6.0 hours (DC50). Summed up:
as §1

[1] abbreviates: half-maximal degradation concentration.

As to `N#Cc1cnn2cc(-c3ccc(C4CCN(C(=O)CC5(O)CCN(c6ccc(NC7CCC(=O)NC7=O)cc6F)CC5)CC4)cc3)nc(-c3ccc(N4CCN(C(=O)c5ccon5)CC4)nc3)c12` (stereo not shown) [Compound 175, 6-[4-[1-[2-[1-[4-[(2,6-dioxo-3-piperidyl)amino]-2-fluoro-phenyl]-4-hydroxy-4-piperidyl]acetyl]-4-piperidyl]phenyl]-4-[6-[4-(isoxazole-3-carbonyl)piperazin-1-yl]-3-pyridyl]pyrazolo[1,5-a]pyrazine-3-carbonitrile], the “293T.144 RET (658-1114) 6.0 hours (IP) [nM]” value (from here on “293T.144 RET”) at RET (658-1114) is “++++ (<50 nM = ++++)”. The Emax on RET (658-1114) (% remaining protein) is < 30%; at RET(KD: 658-1114 G810R), < 50%. Further, the DC50 is < 50 nM at RET (658-1114) (setting [1]) and < 100 nM at RET(KD: 658-1114 G810R) (setting [1]). For the same molecule, the “293T.165 RET(KD: 658-1114 G810R) 6.0 hours (IP) [nM]” value on RET(KD: 658-1114 G810R) is given as “++++ (<50 nM = ++++)”.
For `COc1ccc(CN2C3CC2CN(c2ccc(-c4nc(-c5cnn([C@H]6CC[C@H](N7CCN(c8cc(OC)c(NC9CCC(=O)NC9=O)cc8F)CC7)CC6)c5)cn5ncc(C#N)c45)cn2)C3)cn1` (relative stereo) [Compound 167, 6-[1-[4-[4-[4-[(2,6-dioxo-3-piperidyl)amino]-2-fluoro-5-methoxy-phenyl]piperazin-1-yl]cyclohexyl]pyrazol-4-yl]-4-[6-[6-[(6-methoxy-3-pyridyl)methyl]-3,6-diazabicyclo[3.1.1]heptan-3-yl]-3-pyridyl]pyrazolo[1,5-a]pyrazine-3-carbonitrile], the “293T.144 RET” value at RET (658-1114) was “++++ (<50 nM = ++++)”. Besides, the Emax on RET (658-1114) (% remaining protein) and at RET(KD: 658-1114 G810R) was < 30% in each case. Besides, the DC50 on RET (658-1114) (setting [1]) and at RET(KD: 658-1114 G810R) (setting [1]) was < 50 nM each time. Moreover, on RET(KD: 658-1114 G810R), the “293T.165 RET(KD: 658-1114 G810R) 6.0 hours (IP) [nM]” value is given as “++++ (<50 nM = ++++)”.
As for `CCC1(C(=O)NC2CCC2)CCN(c2ccc(-c3cc(-c4cnn(C5CCN(C(=O)CN6CCC(c7ccc(NC8CCC(=O)NC8=O)cc7F)CC6)CC5)c4)cn4ncc(C#N)c34)cn2)CC1` (stereo not shown) [Compound 8, 1-(5-(3-Cyano-6-(1-(1-(2-(4-(4-((2,6-dioxopiperidin-3-yl)amino)-2-fluorophenyl)piperidin-1-yl)acetyl)piperidin-4-yl)-1H-pyrazol-4-yl)pyrazolo[1,5-a]pyridin-4-yl)pyridin-2-yl)-N-cyclobutyl-4-ethylpiperidine-4-carboxamide], on RET (658-1114) (HiBiT-Degradation), the “293T.144 RET” value is given as “++++ (< 50 nM = ++++)”, the DC50 is < 50 nM and the Emax is < 30%. Further, the Emax at RET(KD: 658-1114 G810R) is < 30%. Besides, the DC50 at RET(KD: 658-1114 G810R) (setting [1]) is < 50 nM. Further, at RET(KD: 658-1114 G810R) (HiBiT-Degradation), the “293T.165 RET(KD: 658-1114 G810R) 6.0 hours (Emax)” value is “++++ (< 30% = ++++)”, the “293T.165 RET(KD: 658-1114 G810R) 6.0 hours (IP) [nM]” value was “++++ (< 50 nM = ++++)” and the DC50 is < 50 nM.
In the case of `CCC1(C(=O)NC(C)(C)C)CCN(c2ccc(-c3nc(-c4cnn([C@H]5CC[C@H](N6CCC(c7ccc(N[C@@H]8CCC(=O)NC8=O)cc7F)CC6)CC5)c4)cn4ncc(C#N)c34)cn2)CC1` (single isomer, unassigned) [Compound 146], at RET (658-1114), the “293T.144 RET” value is listed as “++++ (<50 nM = ++++)”. In addition, the Emax on RET (658-1114) (% remaining protein) and on RET(KD: 658-1114 G810R) was < 30% each time. Also, the DC50 on RET (658-1114) (setting [1]) and on RET(KD: 658-1114 G810R) (setting [1]) was < 50 nM each time. Besides, the “293T.165 RET(KD: 658-1114 G810R) 6.0 hours (IP) [nM]” value on RET(KD: 658-1114 G810R) is listed as “++++ (<50 nM = ++++)”.
Consider `N#Cc1cnn2cc(-c3cnn([C@H]4CC[C@@H](N5CCN(c6c(F)cc(NC7CCC(=O)NC7=O)cc6F)CC5)CC4)c3)nc(-c3ccc(N4CCC5(CC4)CCN5c4nccc(Cl)n4)nc3)c12` (single isomer, unassigned) [Compound 204, 4-(6-(1-(4-Chloropyrimidin-2-yl)-1,7-diazaspiro[3.5]nonan-7-yl)pyridin-3-yl)-6-(1-((1s, 4s)-4-(4-(4-((2,6-dioxopiperidin-3-yl)amino)-2,6-difluorophenyl)piperazin-1-yl)cyclohexyl)-1H-pyrazol-4-yl)pyrazolo[1,5-a]pyrazine-3-carbonitrile], for which the “293T.144 RET” value at RET (658-1114) was “++++ (<50 nM = ++++)”. Moreover, the Emax at RET (658-1114) (% remaining protein) and at RET(KD: 658-1114 G810R) was < 30% each time. Besides, the DC50 is < 50 nM on RET (658-1114) (setting [1]) and < 100 nM at RET(KD: 658-1114 G810R) (setting [1]). For the same molecule, on RET(KD: 658-1114 G810R), the “293T.165 RET(KD: 658-1114 G810R) 6.0 hours (IP) [nM]” value is listed as “+++ (<100 nM = +++)”.
On to `N#Cc1cnn2cc(-c3cnn(C4CCN(C(=O)CC5(O)CCN(c6ccc(NC7CCC(=O)NC7=O)cc6F)CC5)CC4)c3)nc(-c3ccc(N4CCN(C(=O)c5cccnc5)CC4)nc3)c12` (stereo not shown) [Compound 106, 6-[1-[1-[2-[1-[4-[(2,6-dioxo-3-piperidyl)amino]-2-fluoro-phenyl]-4-hydroxy-4-piperidyl]acetyl]-4-piperidyl]pyrazol-4-yl]-4-[6-[4-(pyridine-3-carbonyl)piperazin-1-yl]-3-pyridyl]pyrazolo[1,5-a]pyrazine-3-carbonitrile], for which, at RET (658-1114), the “293T.144 RET” value is reported as “++++ (<50 nM = ++++)”. Further, the figures for the Emax on RET (658-1114) (% remaining protein) and at RET(KD: 658-1114 G810R) were < 30% and < 50%, respectively. For the same molecule, the DC50 at RET (658-1114) (setting [1]) was < 50 nM; on RET(KD: 658-1114 G810R) (setting [1]), < 100 nM. Further, the “293T.165 RET(KD: 658-1114 G810R) 6.0 hours (IP) [nM]” value at RET(KD: 658-1114 G810R) is listed as “++++ (<50 nM = ++++)”.
As to `CCC1(NC(=O)c2ncccc2Cl)CCN(c2ccc(-c3nc(-c4cnn([C@H]5CC[C@@H](N6CCN(c7ccc8c(N9CCC(=O)NC9=O)nn(C)c8c7F)CC6)CC5)c4)cn4ncc(C#N)c34)cn2)CC1` (single isomer, unassigned) [Compound 170, 3-Chloro-N-(1-(5-(3-cyano-6-(1-((1s, 4s)-4-(4-(3-(2,4-dioxotetrahydropyrimidin-1(2H)-yl)-7-fluoro-1-methyl-1H-indazol-6-yl)piperazin-1-yl)cyclohexyl)-1H-pyrazol-4-yl)pyrazolo[1,5-a]pyrazin-4-yl)pyridin-2-yl)-4-ethylpiperidin-4-yl)picolinamide], the “293T.144 RET” value at RET (658-1114) is “++++ (<50 nM = ++++)”. Further, the Emax at RET (658-1114) (% remaining protein) and at RET(KD: 658-1114 G810R) was < 30% in each case. The DC50 was < 50 nM on RET (658-1114) (setting [1]) and < 100 nM at RET(KD: 658-1114 G810R) (setting [1]). Besides, the “293T.165 RET(KD: 658-1114 G810R) 6.0 hours (IP) [nM]” value at RET(KD: 658-1114 G810R) was “++++ (<50 nM = ++++)”.
Take `CC(C)NC(=O)C1(C)CCN(c2ccc(-c3cc(-c4cnn([C@H]5CC[C@H](CCN6CCC(c7ccc(NC8CCC(=O)NC8=O)cc7F)CC6)CC5)c4)cn4ncc(C#N)c34)cn2)CC1` (stereo partly shown) [Compound 34, 1-(5-(3-Cyano-6-(1-((1r,4r)-4-(2-(4-(4-((2,6-dioxopiperidin-3-yl)amino)-2-fluorophenyl)piperidin-1-yl)ethyl)cyclohexyl)-1H-pyrazol-4-yl)pyrazolo[1,5-a]pyridin-4-yl)pyridin-2-yl)-N-isopropyl-4-methylpiperidine-4-carboxamide]: at RET (658-1114) (HiBiT-Degradation), the “293T.144 RET” value is “++++ (< 50 nM = ++++)”, the DC50 is < 50 nM and the Emax is < 30%. Further, on RET(KD: 658-1114 G810R), the Emax is < 30%. For the same molecule, at RET(KD: 658-1114 G810R) (setting [1]), the DC50 was < 50 nM. On RET(KD: 658-1114 G810R) (HiBiT-Degradation), the “293T.165 RET(KD: 658-1114 G810R) 6.0 hours (Emax)” value is given as “++++ (< 30% = ++++)”, the “293T.165 RET(KD: 658-1114 G810R) 6.0 hours (IP) [nM]” value was “++++ (< 50 nM = ++++)” and the DC50 was < 50 nM.
Take `CCC1(C(=O)NC(C)C)CCN(c2ccc(-c3nc(-c4cnn([C@H]5CC[C@H](N6CCC(c7ccc(N[C@H]8CCC(=O)NC8=O)cc7F)CC6)CC5)c4)cn4ncc(C#N)c34)cn2)CC1` (single isomer, unassigned) [Compound 123]: the “293T.144 RET” value on RET (658-1114) is reported as “++++ (<50 nM = ++++)”. Besides, the Emax at RET (658-1114) (% remaining protein) and on RET(KD: 658-1114 G810R) was < 30% each time. Besides, the DC50 at RET (658-1114) (setting [1]) and on RET(KD: 658-1114 G810R) (setting [1]) was < 50 nM in each case. On RET(KD: 658-1114 G810R), the “293T.165 RET(KD: 658-1114 G810R) 6.0 hours (IP) [nM]” value is listed as “++++ (<50 nM = ++++)”.
